Results as given in PMC8607231, “Generation of KS-133 as a Novel Bicyclic Peptide with a Potent and Selective VIPR2 Antagonist Activity that Counteracts Cognitive Decline in a Mouse Model of Psychiatric Disorders” (Frontiers in Pharmacology, 2021).
Where a SMILES comes first, the peptide text is derived from it. Bridges are numbered along the chain shown (N, C = ends). [ ]: non-standard residue; d: D form. Dap = NC[C@H](N)C(=O)O

Columns and labels:
human PAC1 = target: T1, human PAC1 (Homo sapiens, UniProt P41586); experiment: Calcium influx assay, antagonist activity against PACAP-PAC1 signaling; assay type: cell-based; conditions: ligand PACAP (35 nM) at EC80; CHO-K1 cells; n = 4 wells, ± S.E.M; read-out: Ca influx assay [IC50 (nM)] PAC1
T1 construct: host or cells: CHO-K1
T1 sequence (P41586 21-468): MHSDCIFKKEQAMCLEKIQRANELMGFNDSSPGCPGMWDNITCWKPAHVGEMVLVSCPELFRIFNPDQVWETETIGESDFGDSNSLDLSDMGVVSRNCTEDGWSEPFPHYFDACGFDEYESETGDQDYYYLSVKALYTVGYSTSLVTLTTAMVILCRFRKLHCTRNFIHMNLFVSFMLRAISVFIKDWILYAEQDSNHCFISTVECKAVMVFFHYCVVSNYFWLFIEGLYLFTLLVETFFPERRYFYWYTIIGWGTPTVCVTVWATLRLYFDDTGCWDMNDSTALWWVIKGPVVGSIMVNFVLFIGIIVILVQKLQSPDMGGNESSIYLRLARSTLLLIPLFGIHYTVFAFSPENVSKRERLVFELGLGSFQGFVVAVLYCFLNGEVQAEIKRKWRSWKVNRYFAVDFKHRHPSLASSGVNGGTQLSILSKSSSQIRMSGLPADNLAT
Description: (§1) Evaluation of antagonist activities of peptides against VIP-VIPR1, VIP-VIPR2, and PACAP-PAC1 signaling pathways and agonistic activity of KS-133 at VIPR2 was carried out by Eurofins DiscoverX (Fremont, CA, United States). Intracellular calcium mobilization was monitored using a calcium-sensitive dye loaded in CHO-K1 cells expressing human VIPR1 (ITEM 86-0030P-2243AN), VIPR2 (ITEM 86-0030P-2244AN), and PAC1 (ITEM 86-0030P-2066AN). The cells were preincubated with antagonistic peptides for 30 min at room temperature in the dark. After addition of the ligand at EC80, calcium mobilization was immediately monitored by FLIPR Tetra for 2 min. Cyclic AMP production in CHO-K1 cells expressing human VIPR2 was evaluated using HitHunter® cAMP assays (antagonist mode: ITEM 86-0007P-2362AN; agonist mode: ITEM 86-0007P-2362AG). The cells were preincubated with antagonistic peptides for 30 min at room temperature. After addition of the ligand at EC80, cells were further incubated for 30 min at room temperature. Cells were lysed and the cAMP content of the cell lysate was determined by the β-galactosidase-based enzyme fragment complementation assay ([Eglen, 2002]). IC50 values were estimated by the following equation: IC50 = 10^[Log(A/B) × (50–D)/(C–D) + Log(B)], where A is the concentration at >50% inhibition, B is the concentration at <50% inhibition, C is the inhibition rate at concertation A, and D is the inhibition rate at concertation B.
(§2) First, the antagonistic activities of parental VIpep-3, KS-132, KS-133 (monocyclic) (no bridging between Lys^7 and Asp^11), and KS-133 against human VIPR1, VIPR2, and PAC1 were evaluated by a calcium influx assay. After antagonistic peptide treatment for 30 min, ligand at a concentration of EC80 was added to the cells and then calcium signaling was measured.
(§3) FIGURE 3 Antagonistic/agonistic activities of peptides in the calcium influx and cAMP assays. For evaluation of the antagonistic activity, the cells were preincubated with antagonistic peptides for 30 min. In the calcium influx assay, after addition of ligand at EC80, calcium mobilization was monitored immediately (see details in the Methods section) (n = 4 wells for each treatment). In the cAMP assay, after a 30 min incubation with the ligand at EC80, cAMP production in cells was measured (see details in the Methods section) (n = 4 wells for each treatment).

human VIPR1 = target: T2, human VIPR1 (Homo sapiens, UniProt P32241); experiment: Calcium influx assay, antagonist activity against VIP-VIPR1 signaling; assay type: cell-based; conditions: ligand VIP (25 nM) at EC80; CHO-K1 cells; n = 4 wells, ± S.E.M; read-out: Ca influx assay [IC50 (nM)] VIPR1
T2 construct: host or cells: CHO-K1
T2 sequence (P32241 31-457): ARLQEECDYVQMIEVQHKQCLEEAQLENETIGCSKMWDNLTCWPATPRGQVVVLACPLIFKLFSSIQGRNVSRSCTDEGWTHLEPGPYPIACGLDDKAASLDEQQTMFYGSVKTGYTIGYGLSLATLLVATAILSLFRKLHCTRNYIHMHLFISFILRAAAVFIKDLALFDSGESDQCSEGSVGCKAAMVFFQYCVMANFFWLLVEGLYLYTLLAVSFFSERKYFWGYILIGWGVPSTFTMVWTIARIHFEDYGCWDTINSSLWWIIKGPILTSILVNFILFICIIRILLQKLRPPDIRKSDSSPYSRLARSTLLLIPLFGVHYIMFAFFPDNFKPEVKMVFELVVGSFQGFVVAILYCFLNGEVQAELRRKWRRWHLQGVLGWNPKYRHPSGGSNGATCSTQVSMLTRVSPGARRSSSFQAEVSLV
Description: as §1, §2, §3

[1] = Peptide stability in rat plasma (RP-HPLC); assay type: in vitro ADME; conditions: for Stability in rat plasma / RP-HPLC peak area, incubation time 24 h / remaining at 24 h, 0.476 mM: 37°C, 24 h; for RP-HPLC peak area, Input (NT): no plasma treatment; for RP-HPLC peak area, incubation time 24 h / remaining at 24 h, 0.476 mM / RP-HPLC peak area, immediately after mixing / Residual rate, immediately after mixing: rat plasma; for remaining at 24 h, 0.476 mM: read-out: Residual rate, incubation time 24 h
Description: Each peptide (10 mM, 1 μl) was incubated with rat plasma (20 μl) prepared in-house. Immediately after mixing with plasma and after 24 h of incubation at 37°C, 80% acetonitrile (200 μl) was added to extract VIpep-3 and acetonitrile (200 μl) was added to extract KS-132, KS-133(monocyclic), and KS-133. The mixture was stored for 10 min on ice and then centrifuged at 20,000 × g for 10 min at 4°C. The supernatant was recovered and directly applied to RP-HPLC to determine the remaining amount of unmodified peptides in the sample.
The stability of peptides was evaluated in rat plasma. A peptide was incubated in rat plasma at 37°C for 0 and 24 h and the remaining amount of peptide was determined by RP-HPLC. By comparison with the peak area of the peptide, the remaining amount of the peptide after plasma incubation was estimated. […] KS-133(monocyclic) may form a pseudo bicyclic structure by ionic bond interaction between side chains of Lys and Asp.

human VIPR2 = target: T3, human VIPR2 (Homo sapiens, UniProt P41587); experiment: Calcium influx assay, antagonist activity against VIP-VIPR2 signaling; assay type: cell-based; conditions: ligand VIP (150 nM) at EC80; CHO-K1 cells; n = 4 wells, ± S.E.M; read-out: Ca influx assay [IC50 (nM)] VIPR2
T3 construct: host or cells: CHO-K1
T3 sequence (P41587 24-438): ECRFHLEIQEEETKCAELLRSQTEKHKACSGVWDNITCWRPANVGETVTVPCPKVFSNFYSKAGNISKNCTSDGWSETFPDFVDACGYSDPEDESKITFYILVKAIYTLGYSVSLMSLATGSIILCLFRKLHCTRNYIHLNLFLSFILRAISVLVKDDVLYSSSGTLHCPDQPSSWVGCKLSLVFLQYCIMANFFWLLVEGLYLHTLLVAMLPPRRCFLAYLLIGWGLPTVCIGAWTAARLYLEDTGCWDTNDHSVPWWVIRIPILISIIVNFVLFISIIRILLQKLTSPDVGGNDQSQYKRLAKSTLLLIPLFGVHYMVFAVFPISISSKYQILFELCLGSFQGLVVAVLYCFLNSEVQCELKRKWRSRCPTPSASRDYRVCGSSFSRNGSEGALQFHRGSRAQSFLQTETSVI
Description: as §1, with “The cells were preincubated with antagonistic peptides for 30 min at room temperature. After addition of the ligand at EC80, cells were further incubated for 30 min at room temperature.” left out, “IC50 values were estimated by the following equation: IC50 = 10^[Log(A/B) × (50–D)/(C–D) + Log(B)], where A is the concentration at >50% inhibition, B is the concentration at <50% inhibition, C is the inhibition rate at concertation A, and D is the inhibition rate at concertation B.” left out
as §2, with “measured. […]” for “measured.”

VIPR2 = tested on: VIPR2; set-up: method as in Sakamoto et al. (2018); conditions: versus VIPR1 and PAC1; ref Sakamoto et al. (2018); cited from earlier work

Structure (SMILES)	IC50 (human PAC1) [nM]	IC50 (human VIPR1) [nM]	Stability in rat plasma [1]	RP-HPLC peak area, Input (NT) [1]	RP-HPLC peak area, incubation time 24 h [1]	remaining at 24 h, 0.476 mM [1] [%]	RP-HPLC peak area, immediately after mixing [1]	Residual rate, immediately after mixing [1] [%]	IC50 (human VIPR2) [nM]	Receptor selectivity for VIPR2 compared with the two other receptor subtypes (VIPR2)
CC[C@H](C)[C@H](NC(=O)[C@H](CC(C)C)NC(=O)[C@H](CN)NC(=O)[C@@H]1CSSC[C@H](NC(C)=O)C(=O)N2CCC[C@H]2C(=O)N2CCC[C@H]2C(=O)N[C@@H](Cc2ccc(O)cc2)C(=O)N[C@@H](CC(C)C)C(=O)N2CCC[C@H]2C(=O)N[C@@H](CN)C(=O)N[C@@H](Cc2ccc(O)cc2)C(=O)N[C@@H](CC(C)C)C(=O)N1)C(N)=O [KS-132, Ac-c(Cys-Pro-Pro-Tyr-Leu-Pro-Dap-Tyr-Leu-Cys)-Dap-Leu-Ile-NH2] (Ac-CPPYLP[Dap]YLC[Dap]LI-NH2; disulfide 1-10)	> 5000	> 5000	significantly degraded within 24 h	1460241	696652	57.8	1206247	100	33.4 ± 2.8	
CC[C@H](C)[C@H](NC(=O)[C@H](CC(C)C)NC(=O)[C@H](CC(=O)O)NC(=O)[C@@H]1CSSC[C@H](NC(C)=O)C(=O)N2CCC[C@H]2C(=O)N2CCC[C@H]2C(=O)N[C@@H](Cc2ccc(O)cc2)C(=O)N[C@@H](CC(C)C)C(=O)N2CCC[C@H]2C(=O)N[C@@H](CCCCN)C(=O)N[C@@H](Cc2ccc(O)cc2)C(=O)N[C@@H](CC(C)C)C(=O)N1)C(N)=O [KS-133(monocyclic)] (Ac-CPPYLPKYLCDLI-NH2; disulfide 1-10)	> 5000	> 5000	also highly stable	768775	724176	97.3	744262	100	56 ± 3.9	
CC(=O)N[C@H]1CSSC[C@@H](C(=O)N[C@H](C(=O)N[C@@H](CC(C)C)C(=O)N[C@@H](CC(C)C)C(=O)N[C@@H](CC(C)C)C(=O)N[C@@H](CCCNC(=N)N)C(=O)N[C@@H](CO)C(=O)O)[C@@H](C)O)NC(=O)[C@H](CC(C)C)NC(=O)[C@H](CCCNC(=N)N)NC(=O)[C@H](CCCNC(=N)N)NC(=O)[C@@H]2CCCN2C(=O)[C@H](CC(C)C)NC(=O)[C@H](Cc2ccc(O)cc2)NC(=O)[C@@H]2CCCN2C(=O)[C@@H]2CCCN2C1=O [VIpep-3, Ac-c(CPPYLPRRLC)TLLLRS-OH, reference compound] (Ac-CPPYLPRRLCTLLLRS-OH; disulfide 1-10)	> 5000	> 5000	significantly degraded within 24 h	1299273	95354	10.6	900813	100		more than 50 fold
